Laboratory results published in patent US20220288148A1, “METHODS FOR RELIEVING BACK PAIN WITH TERMINALIA CHEBULA COMPOSITIONS” (Natreon, Inc., priority 2021, published 2022).

Assays:
[1] = system: collagen-induced arthritis; conditions: mice with collagen-induced arthritis; cited from earlier work
[2] = system: low back pain; experiment: Case reports of human subjects with low back pain (Examples 2-5); assay type: in vivo; conditions: before AyuFlex
Experimental: Several human subjects suffering from back pain were administered an effective amount of a T. chebula composition according to the present invention (AyuFlex®, an aqueous extract of T. chebula fruit in powdered and standardized form, orally administered in a capsule containing 500 mg of the extract). […] Subject weights ranged from 54.5 kg to 72.7 kg, and daily doses ranged from 500 mg to 2000 mg per day of AyuFlex®, which may be calculated at a dose range of about 6.88 mg AyuFlex®/kg body weight of a subject to about 36.7 mg AyuFlex®/kg body weight of a subject.
Prior to administration of AyuFlex®, the subject reported a history of suffering from chronic low back pain, described by the subject as sciatic pain, as well as from patellar tendonitis, for the past ten years. The subject indicated their belief that the low back pain was due to a very active lifestyle that included lifting heavy weights. They previously attempted to relieve the chronic low back pain with numerous rounds of physical therapy and rehab-based regimens, but was only provided with temporary relief until they resumed exercise.
The subject began oral administration of 2 (two) 500 mg AyuFlex® capsules daily to treat their low back pain.
Prior to administration of AyuFlex®, the subject reported a history of back pain described by the subject as sciatic pain, beginning when they were young. They were a gymnast for many years, and as a result injured their back. They were diagnosed with small compression fractures and disk bulges in their lower back. Throughout their teen years, the subject underwent intermittent physical therapy, and also sought treatment from a chiropractor for two years. Although the subject reported some temporary relief from these treatments, their pain was not resolved.
The subject further reported that, due to lack of exercise over the years, their sciatic pain became extremely severe. […] Within a month of the onset of these severe symptoms, the subject described having only one or two days where […] was pain-free. […] reported relying heavily on acetaminophen (Tylenol®) and ibuprofen (Advil®) to ease their pain, as they were often not able to sleep due to the sharp sciatic pain. […] Along with the sciatic pain, for a few months before beginning administration of Ayuflex®, the subject reported experiencing stiffness in […] lower back as well. […] reported needing to bend their back to walk for a few minutes after they would stand.
The subject began oral administration of Ayuflex®, taking a 500 mg capsule twice daily for about 2 months, and then recently chose to increase the dosage to 1000 mg (2 capsules) twice daily. […]

[3] = system: subjects with hyperuricemia; conditions: cited from earlier work

Compound	subject-reported pain relief by prior analgesics ([2]; Example 3 subject)	subject-reported pain relief by prior analgesics ([2]; Example 5 subject)	other results
O=C(O)C[C@@H]1C(=O)O[C@H]2[C@H](OC(=O)c3cc(O)c(O)c(O)c3)[C@@H](OC(=O)c3cc(O)c(O)c4c3[C@H]1[C@H](O)C(=O)O4)[C@H](OC(=O)c1cc(O)c(O)c(O)c1)O[C@@H]2COC(=O)c1cc(O)c(O)c(O)c1 [chebulinic acid]			conclusion on anti-VEGF antiangiogenic action for inflammatory arthritis [1]: safe and potent anti-VEGF antiangiogenic agent
CC(C)Cc1ccc(C(C)C(=O)O)cc1 (centres unmarked) [ibuprofen]	only relieved their pain for a few hours	only relieved the pain for a few hours	
CC(=O)Nc1ccc(O)cc1 [acetaminophen]	only relieved their pain for a few hours	only relieved the pain for a few hours	
Cc1nc(-c2ccc(OCC(C)C)c(C#N)c2)sc1C(=O)O [febuxostat]			reduction in mean serum uric acid levels compared to baseline ([3]; as early as 4 weeks, T. bellerica 500 and 250 mg BID, febuxostat 40 mg, T. chebula 500 mg BID): Significant reduction; serum uric acid levels, baseline ([3]; baseline, T. bellerica 500 mg BID, febuxostat 40 mg once daily, in mg/dL (unit assumed)): 8.53±0.97; serum uric acid levels at the end of 24 weeks ([3]; end of 24 weeks, T. bellerica 500 mg BID, febuxostat 40 mg once daily, in mg/dL (unit assumed)): 4.28±0.67
